From PubChem BioAssay (NCI) come the findings set out here.

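The compound was tested at five concentrations on cells cultured in 96-well plates, with a 48-hour exposure period. GI50 = concentration required for 50% inhibition of growth. The concentration for full growth arrest is given as TGI.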

Test systems include SNB-19 CNS; TK-10 renal; OVCAR-4 ovarian; ACHN renal; 786-0 renal; NCI-H460 lung; NCI-H23 lung; RXF 393 renal; CCRF-CEM leukemia; MDA-MB-231 breast.
What all share (assay): NCI anticancer screen, dose series, 48 h

Turning to `CCn1ccc(NS(=O)(=O)c2ccc(N)cc2)nc1=O`, the GI50 in the assay on SNB-19 CNS, in the assay on TK-10 renal, in the assay on OVCAR-4 ovarian, in the assay on ACHN renal, with 786-0 renal and in the assay on NCI-H460 lung was greater than 100 µM in each case. Besides, the GI50 in the assay with NCI-H23 lung, with RXF 393 renal, with CCRF-CEM leukemia and with MDA-MB-231 breast was greater than 100 µM throughout. Besides, the TGI with SNB-19 CNS, with TK-10 renal, with OVCAR-4 ovarian, in the assay with ACHN renal, in the assay with 786-0 renal and in the assay with NCI-H460 lung was greater than 100 µM each time. The TGI with NCI-H23 lung, with RXF 393 renal, with CCRF-CEM leukemia and in the assay on MDA-MB-231 breast was greater than 100 µM each time.
Take `CN(C)c1ccc2nc(CC(O)(C(F)(F)F)C(F)(F)F)ccc2c1`: the TGI with SNB-19 CNS, with TK-10 renal, in the assay with OVCAR-4 ovarian, with ACHN renal, with 786-0 renal and in the assay on NCI-H460 lung was greater than 10 µM each time. Besides, the TGI in the assay on NCI-H23 lung, in the assay on RXF 393 renal, with CCRF-CEM leukemia and in the assay with MDA-MB-231 breast was greater than 10 µM in each case.
In the case of `Nc1ccc(Sc2c3ccccc3nc3ccccc23)cc1`, the TGI with SNB-19 CNS stood at 51.6 µM; with TK-10 renal it was 34.2 µM; in the assay on OVCAR-4 ovarian, 29.4 µM; in the assay on ACHN renal, 28.3 µM; with 786-0 renal, 14.7 µM; in the assay on NCI-H460 lung, 49.5 µM. The TGI in the assay on NCI-H23 lung came out at 36.7 µM; in the assay on RXF 393 renal, 40.4 µM; in the assay on CCRF-CEM leukemia it was 30.2 µM; with MDA-MB-231 breast it was 28.1 µM.
On to `CN(C)CCNC(=O)NC[C@H]1CC[C@@H]2[C@H](O1)c1cc(C(F)(F)F)ccc1N[C@H]2c1ccccc1`, for which the GI50 was 0.624 µM in the assay on SNB-19 CNS; 9.78 µM with TK-10 renal; 3.03 µM in the assay on OVCAR-4 ovarian; 10.5 µM in the assay with ACHN renal; 5.42 µM in the assay with 786-0 renal; 0.14 µM in the assay on NCI-H460 lung. Further, the GI50 with NCI-H23 lung was 0.495 µM; in the assay on RXF 393 renal, 0.249 µM; with CCRF-CEM leukemia, 0.137 µM; in the assay with MDA-MB-231 breast, 0.24 µM. Also, the TGI in the assay on SNB-19 CNS is greater than 100 µM; with TK-10 renal, 27.5 µM; with OVCAR-4 ovarian it was 22.2 µM; in the assay with ACHN renal, 23 µM; in the assay with 786-0 renal, 36.3 µM; with NCI-H460 lung it was 11.8 µM. For the same compound, the TGI with NCI-H23 lung was greater than 48.3 µM; in the assay on RXF 393 renal it was 18.4 µM; in the assay with CCRF-CEM leukemia it was 3.85 µM; with MDA-MB-231 breast, 3.6 µM.
With `C=CCc1c(O)c(C(=O)/C=C/c2ccccc2)c(OC)c2ccoc12`, the GI50 with SNB-19 CNS was 2.85 µM; in the assay on TK-10 renal, 4.96 µM; in the assay with OVCAR-4 ovarian, 2.89 µM; with ACHN renal, 3.79 µM; with 786-0 renal, 4.12 µM; with NCI-H460 lung, 2.79 µM. In addition, the GI50 with NCI-H23 lung was 2.52 µM; with RXF 393 renal, 1.85 µM; in the assay with CCRF-CEM leukemia it was 2.75 µM; in the assay with MDA-MB-231 breast it was 3.11 µM. The TGI in the assay on SNB-19 CNS was determined as 10.7 µM; in the assay on TK-10 renal, 17.3 µM; in the assay on OVCAR-4 ovarian, 12.8 µM; with ACHN renal, 13.8 µM; in the assay with 786-0 renal it was 16.8 µM; with NCI-H460 lung, 10.7 µM. In addition, the figures for the TGI in the assay with RXF 393 renal, in the assay with CCRF-CEM leukemia and with MDA-MB-231 breast were 5.62 µM, greater than 100 µM and 11.3 µM, respectively.
As for `CN(C)c1ccc(N=C2C=CC(=O)c3ccccc32)cc1`, the GI50 in the assay on SNB-19 CNS is 3.42 µM; in the assay with TK-10 renal, 17 µM; in the assay with OVCAR-4 ovarian it was 2.02 µM; with ACHN renal, 4.1 µM; with 786-0 renal, 15.2 µM; with NCI-H460 lung, 1.98 µM. Besides, the GI50 with NCI-H23 lung is 2.41 µM; with RXF 393 renal it was 3.2 µM; in the assay on CCRF-CEM leukemia, 2.13 µM; with MDA-MB-231 breast, 0.899 µM. The TGI with SNB-19 CNS stood at 13.9 µM; in the assay with TK-10 renal it was 31 µM; with OVCAR-4 ovarian it was 10.4 µM; in the assay on ACHN renal it was 18.4 µM; in the assay on 786-0 renal, 32.5 µM; with NCI-H460 lung it was 4.86 µM. The TGI with NCI-H23 lung was 8.04 µM; in the assay with RXF 393 renal it was 14.5 µM; in the assay on CCRF-CEM leukemia, 6.17 µM; with MDA-MB-231 breast, 12.7 µM.
For `Cc1nccc2c3ccc(OCc4cn(-c5ccc(Cl)cc5)nn4)cc3n(CC(C)C)c12`, the GI50 with SNB-19 CNS is 4.5 µM; in the assay on TK-10 renal, 6.89 µM; in the assay on OVCAR-4 ovarian, 2.24 µM; with ACHN renal, 3.62 µM; in the assay with 786-0 renal it was 2.09 µM; with NCI-H460 lung, 2.33 µM. Further, the GI50 in the assay with NCI-H23 lung was 1.88 µM; in the assay with RXF 393 renal, 2.85 µM; with CCRF-CEM leukemia, 2.04 µM; in the assay on MDA-MB-231 breast it was 4.69 µM. Moreover, the TGI is greater than 33.3 µM with SNB-19 CNS; 19.5 µM with TK-10 renal; 15.1 µM in the assay on OVCAR-4 ovarian; 9.59 µM in the assay on ACHN renal; 8.33 µM in the assay on 786-0 renal; 12.9 µM in the assay with NCI-H460 lung. The TGI is 17.2 µM in the assay on NCI-H23 lung, 11.8 µM in the assay with RXF 393 renal, greater than 33.3 µM in the assay with CCRF-CEM leukemia and 26.5 µM in the assay with MDA-MB-231 breast.
As to `CCCN1CCC(c2ccc(Nc3nc(Nc4cc(F)ccc4C(N)=O)c4cc[nH]c4n3)c(OC)c2)CC1`, the GI50 with SNB-19 CNS was 4.15 µM; in the assay with TK-10 renal, 1.07 µM; in the assay with OVCAR-4 ovarian it was 4.1 µM; in the assay on ACHN renal, 3.13 µM; with 786-0 renal it was 3.07 µM; with NCI-H460 lung, 0.147 µM. In addition, the GI50 was 2.22 µM in the assay with NCI-H23 lung, 2.89 µM in the assay with RXF 393 renal, 1.16 µM with CCRF-CEM leukemia and 4.04 µM in the assay on MDA-MB-231 breast. The TGI in the assay on SNB-19 CNS was 9.73 µM; in the assay on TK-10 renal, 6.33 µM; with OVCAR-4 ovarian it was 13.1 µM; in the assay with ACHN renal it was 7.03 µM; with 786-0 renal, 7.52 µM; in the assay on NCI-H460 lung, 1.43 µM. Also, the TGI with NCI-H23 lung came to 6.5 µM; in the assay with RXF 393 renal it was 6.31 µM; in the assay with CCRF-CEM leukemia, 20.3 µM; in the assay on MDA-MB-231 breast, 8.82 µM.
